Consider 5 compounds from patent US5116995A, “Carbazole compounds” (Taisho Pharmaceutical Co., Ltd., priority 1990, dated 1992).

One may read the IC50 as the concentration that inhibits the measured activity by half.

The target of assay [1] is sigma receptor (Rattus norvegicus, UniProt Q9R0C9). In words: biochemical.
For assay [2], the system named is methamphetamine induced hyperlocomotion. The assay can be described thus: inhibition of Methamphetamine induced Hyperlocomotion. The class given is in vivo, mouse (male ICR). The settings on record: mice, test drug 50 mg/kg i.p., 35 min before methamphetamine 1 mg/kg i.p.; measured for 30 min from 15 min later; **P < 0.01 (Dunnett's test). On the procedure:
Thirty male ICR mice weighing 20 to 35 g were used for each group (5 animals per test, and 6 tests). Mice were placed in the measuring cages, adapted for 60 minutes, and given intraperitoneally the test drugs in Table 1 suspended in 5% gum arabic solution in a dose of 50 mg/kg (0.1 ml/10 g of the body weight). Thirty-five minutes later, methamphetamine dissolved in physiological saline solution was given intraperitoneally in a dose of 1 mg/kg. Fifteen minutes later, the locomotor content was measured for 30 minutes using an Animex apparatus. Control group was given 5% gum arabic only in a similar manner, and […] for measurement. Results are expressed as percentage to control group in Table 2.

Assay [3] deals with sigma receptor. The settings on record: cited from earlier work.
Assay [4] deals with phencyclidine receptor. To be noted: rimcazole value from literature (vol. 155, page 345 (1988)); cited from earlier work.
For assay [5], the target named is D2 receptor. To be noted: rimcazole value from literature (vol. 155, page 345 (1988)), [3H]spiporone binding; cited from earlier work.
Assay [6] has as its target phencyclidine receptor. In words: Receptor Binding Test: [3H]phencyclidine binding, rat whole brain membranes. More on the design: species or system rat (male Wistar). The settings on record: rat whole brain membrane, 5 mM Tris-HCl pH 7.7, 25° C., 2 hours. The source says: 32, page 820 (1987), respectively.
The target in assay [7] is D2 receptor (Rattus norvegicus, UniProt P61169). In words: Receptor Binding Test: (-)-[3H]sulpiride binding, rat striatal membranes.
D2 receptor (Rattus norvegicus, UniProt P61169), sequence (P61169 whole entry): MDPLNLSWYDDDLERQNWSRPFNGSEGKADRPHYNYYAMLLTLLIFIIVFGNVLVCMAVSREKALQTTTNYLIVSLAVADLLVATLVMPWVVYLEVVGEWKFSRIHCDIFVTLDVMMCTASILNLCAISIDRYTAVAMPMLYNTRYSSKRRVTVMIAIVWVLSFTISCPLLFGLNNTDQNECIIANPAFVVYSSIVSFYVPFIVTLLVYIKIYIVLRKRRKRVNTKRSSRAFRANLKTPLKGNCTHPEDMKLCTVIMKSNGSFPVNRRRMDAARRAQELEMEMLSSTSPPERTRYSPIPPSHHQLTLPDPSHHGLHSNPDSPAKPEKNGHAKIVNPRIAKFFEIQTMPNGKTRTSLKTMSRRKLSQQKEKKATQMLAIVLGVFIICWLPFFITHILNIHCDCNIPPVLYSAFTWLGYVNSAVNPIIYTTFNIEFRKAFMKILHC

Read-outs that look alike come from different tables or passages of the source.

sigma receptor (Rattus norvegicus, UniProt Q9R0C9), sequence (Q9R0C9 whole entry): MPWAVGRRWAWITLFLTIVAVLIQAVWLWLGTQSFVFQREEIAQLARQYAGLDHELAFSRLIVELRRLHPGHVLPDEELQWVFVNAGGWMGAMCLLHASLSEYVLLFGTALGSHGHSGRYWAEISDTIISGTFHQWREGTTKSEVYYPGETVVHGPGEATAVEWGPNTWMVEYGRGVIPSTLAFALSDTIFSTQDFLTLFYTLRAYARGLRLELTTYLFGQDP

Consider `CCCN1CCCC(c2cccc(O)c2)C1` (single isomer, unassigned) [3-PPP, 3-(3-hydroxy-phenyl)-N-n-propylpiperidine, reference compound], for which inhibition against sigma receptor [1] was half-maximal at 0.0243 ± 0.0029 µM (IC50).
Turning to `C[C@@H]1CN(CCCn2c3ccccc3c3ccccc32)C[C@H](C)N1` [Rimcazole], the “locomotor count, % to control group” value in assay [2] came out at 51.4%. Also, the “affinity and specificity for sigma receptor” value with sigma receptor [3] (prior art statement) is recorded as “not sufficient”. In addition, the half-maximal inhibitory concentration (IC50) on sigma receptor [3] (rimcazole value from literature (vol. 155, page 345 (1988))) is 1.46 ± 0.235 µM; on phencyclidine receptor [4], greater than 2000 µM; at D2 receptor [5], 86 µM.
For the compound `CCCN(CCC)Cc1cccc2[nH]c3ccccc3c12.Cl` [Test drug A, 4-(di-n-propylaminomethyl)carbazole hydrochloride], the half-inhibitory concentration (IC50) is greater than 10 µM at phencyclidine receptor [6], 0.891 ± 0.0128 µM on sigma receptor [1] and 44.3 µM at D2 receptor [7]. Further, in assay [2], the “locomotor count, % to control group” value is 39.7%.
The matching figures for `CCCN(CCC)Cc1cccc2[nH]c3c(C)ccc(C)c3c12.Cl` [Test drug B, 5,8-dimethyl-4-(di-n-propylaminomethyl)carbazole hydrochloride]: greater than 10 µM, 1.02 ± 0.131 µM, 23.2 µM and 46.6%.
The matching figures for `CCCN(CCC)CCc1cccc2[nH]c3c(C)ccc(C)c3c12.Cl` [Test drug C, 5,8-dimethyl-4-(2-di-n-propylaminoethyl)carbazole hydrochloride]: greater than 10 µM, 0.0048 ± 0.001 µM, 14.3 µM and 35.3%.
